Data on 7 molecules can be found in patent US20110015162A1, “15,16-Methylene-17-hydroxy-19-nor-21-carboxylic acid-steroid Y-lactone derivative, use thereof and medicinal products containing the derivative” (Bayer Schering Pharma Aktiengesellschaft, priority 2007, published 2011).

In one assay the target is T1, progesterone receptor (Homo sapiens, UniProt P06401).
T1 construct: made in house; host or cells: Hi5 insect cells (cytosol)
T1 sequence (P06401 1-933): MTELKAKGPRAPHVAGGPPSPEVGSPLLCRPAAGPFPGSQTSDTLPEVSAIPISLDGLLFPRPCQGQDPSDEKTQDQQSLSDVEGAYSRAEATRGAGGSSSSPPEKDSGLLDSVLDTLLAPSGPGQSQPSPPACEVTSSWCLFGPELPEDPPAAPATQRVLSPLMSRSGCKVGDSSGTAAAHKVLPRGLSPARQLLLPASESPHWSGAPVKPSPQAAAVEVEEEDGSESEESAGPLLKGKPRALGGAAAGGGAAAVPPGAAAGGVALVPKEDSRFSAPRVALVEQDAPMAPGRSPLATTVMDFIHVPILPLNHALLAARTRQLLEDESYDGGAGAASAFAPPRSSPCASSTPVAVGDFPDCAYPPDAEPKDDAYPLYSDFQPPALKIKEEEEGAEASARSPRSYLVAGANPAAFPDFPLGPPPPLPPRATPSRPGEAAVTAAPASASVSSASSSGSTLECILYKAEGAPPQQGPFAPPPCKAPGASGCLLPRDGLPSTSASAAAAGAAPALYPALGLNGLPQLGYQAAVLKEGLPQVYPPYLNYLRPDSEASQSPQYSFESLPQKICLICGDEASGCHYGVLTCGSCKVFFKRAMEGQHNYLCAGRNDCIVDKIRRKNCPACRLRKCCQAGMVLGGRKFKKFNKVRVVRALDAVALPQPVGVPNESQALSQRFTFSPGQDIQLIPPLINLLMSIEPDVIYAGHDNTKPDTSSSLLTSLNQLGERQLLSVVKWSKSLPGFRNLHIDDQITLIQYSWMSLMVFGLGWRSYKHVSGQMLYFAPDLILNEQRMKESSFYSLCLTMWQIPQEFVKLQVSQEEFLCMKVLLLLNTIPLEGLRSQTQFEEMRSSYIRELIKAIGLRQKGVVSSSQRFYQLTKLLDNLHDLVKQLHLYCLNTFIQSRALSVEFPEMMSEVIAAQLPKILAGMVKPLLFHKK
In words: Progesterone receptor binding test. As to conditions: for Progesterone receptor (PR) Competition factor: CF 1 = affinity of progesterone, CF >1 lower affinity, <1 higher affinity; for CF PR/CF MR: ratio of competition factors CF(PR) and CF(MR). On the procedure: 1. Progesterone Receptor Binding Test:
(§1) Using cytosol from progesterone receptor-expressing insect cells (Hi5), competitive binding to the progesterone receptor was determined from the ability to displace ^3H-progesterone as reference substance from the receptor.

The next assay deals with T2, androgen receptor (Homo sapiens, UniProt P10275).
T2 sequence (P10275 1-920): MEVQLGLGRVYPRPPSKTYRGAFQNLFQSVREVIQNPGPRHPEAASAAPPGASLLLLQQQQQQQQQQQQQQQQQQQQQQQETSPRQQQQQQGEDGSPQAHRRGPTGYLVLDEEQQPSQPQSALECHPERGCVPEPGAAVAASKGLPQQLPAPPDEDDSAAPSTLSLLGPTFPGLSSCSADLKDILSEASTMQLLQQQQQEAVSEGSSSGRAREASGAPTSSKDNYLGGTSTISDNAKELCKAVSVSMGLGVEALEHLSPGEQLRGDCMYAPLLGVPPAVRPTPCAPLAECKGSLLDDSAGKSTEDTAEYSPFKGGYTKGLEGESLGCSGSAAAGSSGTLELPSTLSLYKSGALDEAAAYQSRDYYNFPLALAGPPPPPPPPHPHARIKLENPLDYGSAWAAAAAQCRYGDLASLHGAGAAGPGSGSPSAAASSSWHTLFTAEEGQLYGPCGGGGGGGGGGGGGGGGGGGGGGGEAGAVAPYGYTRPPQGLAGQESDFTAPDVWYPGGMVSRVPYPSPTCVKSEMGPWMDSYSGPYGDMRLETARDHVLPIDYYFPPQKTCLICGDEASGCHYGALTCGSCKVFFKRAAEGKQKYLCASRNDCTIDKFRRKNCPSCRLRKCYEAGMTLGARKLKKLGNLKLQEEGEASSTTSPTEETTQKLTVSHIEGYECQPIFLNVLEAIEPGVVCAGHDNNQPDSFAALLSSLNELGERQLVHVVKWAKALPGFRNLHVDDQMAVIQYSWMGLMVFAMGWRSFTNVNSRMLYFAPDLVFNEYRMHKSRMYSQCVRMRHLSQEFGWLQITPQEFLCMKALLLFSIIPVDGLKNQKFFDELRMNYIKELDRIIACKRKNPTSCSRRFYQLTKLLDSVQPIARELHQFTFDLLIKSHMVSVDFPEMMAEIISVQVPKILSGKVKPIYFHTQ
In words: Androgen receptor binding test. More on the design: expressed in transfected cells. On the procedure: as §1
3. Androgen Receptor Binding Test: […]

The target in assay [1] is T3, fusion protein from the PR-ligand-binding domain and a Gal4-transactivation domain (Homo sapiens, UniProt P06401).
T3 construct: expressed in transfected cells; host or cells: CHO K1 cells, stably transfected
In words: Progestational action by transactivation test (CHO K1 reporter cells). The assay is classed as cell-based. As to conditions: for Emax: CHO-K1, 16 h, read-out: Progesterone receptor Agonism efficacy. On the procedure: 4. Determination of Progestational Action by Means of Transactivation Tests:
The culture medium used for culture of the cells used for the assay was DMEM (Dulbecco's Modified Eagle Medium: […] glucose; PAA, #E15-009) with 10% FCS (Biochrom, S0115, batch #615B), 4 mM L-glutamine, 1% penicillin/streptomycin, 1 mg/ml G418 and 0.5 μg/ml puromycin.
Reporter cell lines (CHO K1 cells stably transfected with a fusion protein from the PR-ligand-binding domain and a Gal4-transactivation domain and a reporter construct, which contained luciferase under the control of a Gal4-responsive promoter) were seeded at a density of 4×10^4 cells per well in white, opaque tissue culture plates each with 96 wells (PerkinElmer, #P12-106-017) and kept in culture medium with 3% DCC-FCS (serum treated with activated charcoal to remove interfering components contained in the serum). The test compounds were added eight hours later, and the cells were incubated with the compounds for 16 hours. The tests were carried out in triplicate. At the end of incubation the medium containing the effector was removed and replaced with lysis buffer. After luciferase assay substrate (Promega, #E1501) had been added, the 96-well plates were then put in a microplate luminometer (Pherastar, BMG Labtech), and the luminescence was measured. The IC50 values were evaluated using software for calculating dose-effect relations.

T3 sequence (P04386 1-147 partner limits assumed, one chain of several): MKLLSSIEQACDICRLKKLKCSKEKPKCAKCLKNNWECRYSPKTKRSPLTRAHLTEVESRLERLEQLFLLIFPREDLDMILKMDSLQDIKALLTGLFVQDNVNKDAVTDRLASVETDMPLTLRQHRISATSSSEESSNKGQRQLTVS

Turning to `CC[C@@H]1CC2=CC(=O)CC[C@@H]2[C@H]2CC[C@@]3(C)[C@@H]([C@@H]4C[C@@H]4[C@@]34C=CC(=O)O4)[C@H]12` [Example 24A, 7α-Ethyl-17β-hydroxy-15β,16β-methylene-19-nor-17α-pregna-4,20(Z)-dien-3-one-21-carboxylic acid γ-lactone], on progesterone receptor, the IC50 (as a rule, the point on the concentration scale where inhibition reaches its midpoint) was determined as 1300 nM; the “Progesterone receptor (PR) Competition factor” value (shortened to “Progesterone receptor”) is given as 41.55; the “CF PR/CF MR” value came out at 21.87. Besides, the IC50 at androgen receptor amounted to 160 nM. Besides, in assay [1], the EC50 (as a rule, the midpoint of the concentration-response curve) was 140 nM and the Emax was found to be 42.7%.

As for `C[C@]12CC[C@H]3[C@@H](CCC4=C(Cl)C(=O)CC[C@@H]43)[C@@H]1[C@@H]1C[C@@H]1[C@@]21C=CC(=O)O1` [Example 27, 4-Chloro-17β-hydroxy-15β,16β-methylene-19-nor-17α-pregna-4,20(Z)-dien-3-one-21-carboxylic acid γ-lactone], on progesterone receptor, the IC50 is 2900 nM, the “Progesterone receptor” value worked out at 101.93 and the “CF PR/CF MR” value was 2.17. Besides, the IC50 on androgen receptor worked out at 810 nM. Besides, in assay [1], the EC50 stood at 330 nM and the Emax turned out to be 49.6%.

Take `CC[C@]12CC[C@H]3[C@H]([C@@H]1[C@@H]1C[C@@H]1[C@@]21C=CC(=O)O1)[C@H](C1CC1)CC1=CC(=O)CC[C@@H]13` [Example 7A, 17β-Hydroxy-7α-cyclopropyl-18-methyl-15β,16β-methylene-19-nor-17α-pregna-4,20(Z)-dien-3-one-21-carboxylic acid γ-lactone]: on progesterone receptor, the IC50 is 380 nM, the “Progesterone receptor” value came to 14.22 and the “CF PR/CF MR” value is 3.03. The IC50 on androgen receptor worked out at 170 nM. In assay [1], the Emax is 5%.

Turning to `C[C@]12CC[C@H]3[C@@H](CCC4=CC(=O)CC[C@@H]43)[C@@H]1[C@@H]1C[C@@H]1[C@@]21C=CC(=O)O1` [Example 19, 17β-Hydroxy-15β,16β-methylene-19-nor-17α-pregna-4,20(Z)-dien-3-one-21-carboxylic acid γ-lactone], on progesterone receptor, the IC50 was 25 nM, the “Progesterone receptor” value is recorded as 1.70 and the “CF PR/CF MR” value was 0.01. The molecule further gave an IC50 on androgen receptor of 52 nM.

With `CC[C@]12CC[C@H]3[C@@H](CCC4=CC(=O)CC[C@@H]43)[C@@H]1[C@@H]1C[C@@H]1[C@@]21C=CC(=O)O1` [Example 9, 17β-Hydroxy-18-methyl-15β,16β-methylene-19-nor-17α-pregna-4,20(Z) dien-3-one-21-carboxylic acid γ-lactone], at progesterone receptor, the IC50 was 78.5 nM, the “Progesterone receptor” value came out at 1.65 and the “CF PR/CF MR” value was 1.50. Further, in assay [1], the EC50 was determined as 1.6 nM and the Emax was 56%.

As to `C[C@]12CC[C@H]3[C@@H](CC4(CC4)C4=CC(=O)CC[C@@H]43)[C@@H]1[C@@H]1C[C@@H]1[C@@]21C=CC(=O)O1` [Example 22, 6,6-(1,2-Ethanediyl)-17β-hydroxy-15β,16β-methylene-19-nor-17α-pregna-4,20(Z)dien-3-one-21-carboxylic acid γ-lactone], on progesterone receptor, the IC50 came out at 30 nM, the “Progesterone receptor” value came to 1.04 and the “CF PR/CF MR” value was 1.30. Further, in assay [1], it took 1.1 nM to reach a half-maximal effect (EC50) and the Emax was 126%.

`CC[C@]12CC[C@H]3[C@@H]([C@@H]4C[C@@H]4C4=CC(=O)CC[C@@H]43)[C@@H]1[C@@H]1C[C@@H]1[C@@]21C=CC(=O)O1` [Example 2, 6α,7α;15β,16β-Bismethylene-17β-hydroxy-18-methyl-19-nor-17α-pregna-4,20(Z)-dien-3-one-21-carboxylic acid γ-lactone]: on progesterone receptor, the IC50 was 630 nM, the “Progesterone receptor” value came out at 24.37 and the “CF PR/CF MR” value was determined as 5.54. This molecule came in with an IC50 on androgen receptor of 450 nM.
